The results in this text go back to patent US7776847B2, “Benzisothiazoles useful for treating or preventing HCV infection” (priority 2005, dated 2010).

The structures appear in SMILES notation.

For the first test, the system named is HCV replicon. Put plainly: HCV replicon luciferase reporter assay. The note with it: Hepatitis C virus, Table 5; read-out: IC50. It counts as cell-based. As to the method: The inhibitory activity of certain exemplary compounds of the invention was confirmed using an HCV replicon assay. The HCV replicon can include such features as the HCV IRES, the HCV 3′ untranslated region, selected HCV genes encoding HCV polypeptides, selectable markers, and a reporter gene such as luciferase, GFP, etc. In the assay, actively dividing replicon-comprising cells were seeded at a density of between about 5,000 and 7,500 cells/well onto 96 well plates (about 90 μl of cells per well) and incubated at 37° C. and 5% CO2 for 24 hours. Then, the test compound (in a volume of about 10 μL) was added at various concentrations to each well and the cells were incubated for an additional 24-48 hours. The cells were harvested, and HCV replication or translation was monitored via a reporter assay, e.g., a luciferase reporter assay. The media was aspirated from each cell and Bright-Glo ([…].) luciferase assay reagents were added to each well according to the manufacturer's instructions. In this assay, the amount of test compound that yielded a 50% reduction in luciferase activity (IC50) was determined.
On the technique in general: A replicon is a self-replicating genome or part of one, used to study replication in cells.
For orientation: IC50 means the concentration at which inhibition is half-maximal. On to `O=C(NCCCNc1nsc2ccccc12)c1cccc(OCC(O)CN2CCOCC2)c1` (stereo not drawn) [Entry 232, N-(3-(benzo[d]isothiazol-3-ylamino)propyl)-3-(2-hydroxy-3-morpholinopropoxy)benzamide], for which the IC50 was < 5 µM.
Take `CCCOc1cc(F)ccc1-c1cccc(C(=O)NCCCNc2nsc3ccccc23)c1` [Compound 383, N-(3-(benzo[d]isothiazol-3-ylamino)propyl)-4′-fluoro-6′-propoxybiphenyl-3-carboxaimde]: the IC50 was < 5 µM.
Turning to `CCCc1ccc(C(=O)NCCCNc2nsc3ccccc23)cc1` [Compound 273, N-(3-(benzo[d]isothiazol-3-ylamino)propyl)-4-propylbenzamide], the IC50 is < 5 µM.
On to `O=C1NC(CNc2nsc3ccccc23)C(=O)N1c1ccc(I)cc1` (stereo not drawn) [Compound 311, 5-((benzo[d]isothiazol-3-ylamino)methyl)-3-(4-iodophenyl)imidazolidine-2,4-dione], for which the concentration for half-maximal inhibition (IC50) is > 5 µM.
Turning to `COc1cccc(N2CCN(CC(O)COc3cccc(C(=O)NCCCNc4nsc5ccccc45)c3)CC2)c1` (stereo not drawn) [Entry 233, N-(3-(benzo[d]isothiazol-3-ylamino)propyl)-3-(2-hydroxy-3-(4-(3-methoxyphenyl)piperazin-1-yl)propoxy)benzamide], the IC50 was < 5 µM.
As for `COC(=O)c1cnc(NCCCNc2nsc3ccccc23)cc1C(F)(F)F` [Compound 284, methyl 6-(3-(benzo[d]isothiazol-3-ylamino)propylamino)-4-(trifluoromethyl)nicotinate], the IC50 is < 5 µM.
As to `COc1ccc(-c2ccc(C(=O)NCCCNc3nsc4c(S(=O)(=O)C(C)(C)C)cccc34)cc2)cc1` [Compound 400, N-(3-(7-(tert-butylsulfonyl)benzo[d]isothiazol-3-ylamino)propyl)-4′-methoxybiphenyl-4-carboxamide], the IC50 was < 5 µM.
Consider `O=C(NCCCNc1nsc2ccccc12)c1cccc(C2=CCNCC2)c1` [Compound 394, N-(3-(benzo[d]isothiazol-3-ylamino)propyl)-3-(1,2,3,6-tetrahydropyridin-4-yl)benzamide], for which the IC50 is < 5 µM.
Consider `COc1ccc(Cl)cc1-c1ccc(C(=O)NCCNc2nsc3ccccc23)cc1` [Compound 362, N-(2-(benzo[d]isothiazol-3-ylamino)ethyl)-5′-chloro-2′-methoxybiphenyl-4-carboxamide], for which the IC50 was < 5 µM.
Regarding `O=C(NCCNc1nsc2ccccc12)c1cc(F)ccc1C(F)(F)F` [Compound 352, N-(2-(benzo[d]isothiazol-3-ylamino)ethyl)-5-fluoro-2-(trifluoromethyl)benzamide], the IC50 was > 5 µM.
As to `Cc1cc(S(=O)(=O)NCCCNc2nsc3ccccc23)ccc1Br` [Compound 265, N-(3-(benzo[d]isothiazol-3-ylamino)propyl)-4-bromo-3-methylbenzenesulfonamide], the IC50 is < 5 µM.
On the same count and under the same terms, with `CN(CCCN(C)S(=O)(=O)c1ccccc1C(F)(F)F)c1nsc2ccccc12` [Compound 345, N-(3-(benzo[d]isothiazol-3-yl(methyl)amino)propyl)-N-methyl-2-(trifluoromethyl)benzenesulfonamide] the figure was > 5 µM; with `O=S(=O)(NCCCNc1nsc2ccccc12)c1ccc(C(F)(F)F)cc1` [Compound 245, N-(3-(benzo[d]isothiazol-3-ylamino)propyl)-4-(trifluoromethyl)benzenesulfonamide], < 5 µM.
On the same count and under the same terms, with `CCCCc1ccc(C(=O)NCCCNc2n[s+]([O-])c3ccccc23)cc1` (stereo not drawn) [Compound 321, 4-butyl-N-{3-[(1-oxido-1,2-benzisothiazol-3-yl)amino]propyl}benzamide] the figure was > 5 µM; with `COc1ccc(-c2ccccc2CNCCCNc2nsc3ccccc23)cc1` [Compound 312, N^1-(benzo[d]isothiazol-3-yl)-N^3-((4′-methoxybiphenyl-2-yl)methyl)propane-1,3-diamine], < 5 µM; with `COc1ccc(C)cc1-c1ccc(C(=O)NCCNc2nsc3ccccc23)cc1` [Compound 365, N-(2-(benzo[d]isothiazol-3-ylamino)ethyl)-2′-methoxy-5′-methylbiphenyl-4-carboxamide], < 5 µM.
On to `N#Cc1cccnc1NCCCNc1nsc2ccccc12` [Compound 277, 2-(3-(benzo[d]isothiazol-3-ylamino)propylamino)nicotinonitrile], for which the IC50 was < 5 µM.
For `O=C1CCCN1c1ccc(CNCCCNc2nsc3ccccc23)cc1` [Compound 346, 1-(4-((3-(benzo[d]isothiazol-3-ylamino)propylamino)methyl)phenyl)pyrrolidin-2-one], the IC50 was > 5 µM.
For `O=C(NCCNc1nsc2ccccc12)c1cccc(Br)n1` [Entry 27, N-(2-(Benzo[d]isothiazol-3-ylamino)ethyl)-6-bromopicolinamide], the IC50 is > 5 µM.
On to `FC(F)(F)c1ccccc1CNCCCNc1nsc2ccccc12` [Compound 326, N^1-(benzo[d]isothiazol-3-yl)-N^3-(2-(trifluoromethyl)benzyl)propane-1,3-diamine], for which the IC50 was < 5 µM.
Same read-out and setting: with `O=C(NCCCNc1nsc2ccccc12)c1ccc(O)nc1` [Compound 451, N-(3-(benzo[d]isothiazol-3-ylamino)propyl)-6-hydroxynicotinamide] the figure was > 5 µM; with `O=S(=O)(NCCCNc1nsc2ccccc12)c1cccc2cccnc12` [Compound 249, N-(3-(benzo[d]isothiazol-3-ylamino)propyl)quinoline-8-sulfonamide], < 5 µM.
The same measure, in the same setting: as for `CCCNC(=O)Nc1ccc2sc(C(=O)NCCCNc3nsc4ccccc34)cc2c1` [Compound 458, N-(3-(benzo[d]isothiazol-3-ylamino)propyl)-5-(3-propylureido)benzo[b]thiophene-2-carboxamide], the figure is > 5 µM; as for `O=S(=O)(NCCCNc1nsc2ccccc12)c1ccc(Br)s1` [Entry 222, N-(3-(benzo[d]isothiazol-3-ylamino)propyl)-5-bromothiophene-2-sulfonamide], < 5 µM.
For `O=C(NCCNc1nsc2ccccc12)c1ccc(F)cc1F` [Compound 349, N-(2-(benzo[d]isothiazol-3-ylamino)ethyl)-2,4-difluorobenzamide], the IC50 is < 5 µM.
As to `CCCNC(=O)c1cccc(C(=O)NCCNc2nsc3ccccc23)c1` [Compound 428, N^1-(2-(benzo[d]isothiazol-3-ylamino)ethyl)-N^3-propylisophthalamide], the IC50 was < 5 µM.
On to `CCCCc1ccc(CN(CCCNc2nsc3ccccc23)C(=O)c2ccccn2)cc1` [Compound 293, N-(3-(benzo[d]isothiazol-3-ylamino)propyl)-N-(4-butylbenzyl)picolinamide], for which the IC50 was < 5 µM.
`CCCCc1ccc(NC(=O)NCCCNc2nsc3ccccc23)cc1` [Compound 379, 1-(3-(benzo[d]isothiazol-3-ylamino)propyl)-3-(4-butylphenyl)urea]: the IC50 was < 5 µM.
Regarding `CCCCOc1cc(C(=O)NCCNc2nsc3ccc(NCCC)cc23)ccc1OC` [Compound 310, 3-butoxy-4-methoxy-N-(2-(5-(propylamino)benzo[d]isothiazol-3-ylamino)ethyl)benzamide], the IC50 was < 5 µM.

Staying with this test, now noted: Table 5; read-out: IC50.
In the case of `CC(C)(C)NS(=O)(=O)c1cccc2snc(NCCCN)c12` [Compound 506, 3-(3-aminopropylamino)-N-tert-butylbenzo[d]isothiazole-4-sulfonamide], the IC50 was > 5 µM.
